Test results as given in patent EP2676962A1, “Derivatives of 1-aminoalkylphosphonate diaryl esters, method of 1-aminoalkylphosphonate diaryl ester derivatives preparation and their application” (priority 2012, dated 2013).
Read-outs that look alike come from different tables or passages of the source.

Legend:
Format in all cases: biochemical
[1] = molecular target: T1, human neutrophil elastase (HNE) (Homo sapiens, UniProt P08246); assay: Inhibitory activity toward human neutrophil elastase, fluorogenic substrate, microplate reader
T1 sequence (P08246 30-267): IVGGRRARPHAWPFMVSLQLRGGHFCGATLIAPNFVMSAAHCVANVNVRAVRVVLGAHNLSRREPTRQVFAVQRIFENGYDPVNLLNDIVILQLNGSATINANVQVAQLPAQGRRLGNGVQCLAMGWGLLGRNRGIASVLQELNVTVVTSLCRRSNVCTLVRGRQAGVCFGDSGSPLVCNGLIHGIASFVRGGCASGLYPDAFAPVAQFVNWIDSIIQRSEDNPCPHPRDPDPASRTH
Description: (§1) The biological activity of peptidyl derivatives of phosphonic analogs of valine, alanine, phenylalanine, 4-guanidinephenylglycine, leucine, and 1-aminobutyric acid, containing the N-terminal biotin residue were tested for their ability to inhibit proteolytic activity of selected serine proteases, and the control cysteine proteases. All tests were performed using a microplate reader. As enzyme substrates fluorescent peptides were used. The method to measure the activity of the compounds obtained are described below for each of the enzymes tested: human neutrophil elastase (HNE), porcine pancreatic elastase (PPE), subtilisin (Sub), cathepsin G (CatG), proteinase 3 (PR3), chymotrypsin (ChTry) trypsin (Try), papain (Pap) and cathepsin L (CatL). Measurement of the inhibitory activity was performed at different inhibitor concentrations ranging from 12.5 nM to 2000nm.
Measurement of inhibitory activity of compounds toward human neutrophil elastase (HNE).
(§2) The inhibitory activity assay is performed at 37°C in 0,01M HEPES, 0,5M NaCl, 0,03% Triton X-100 buffer, pH 7,5, within 10 min after initial pre-incubation of the enzyme with inhibitor tested at 37°C for 10 min. The enzyme concentration is 0,0025U/ml. Substrate used Me-Suc-Ala-Ala-Pro-Val-AFC at 25µM. Measurement is taken at an excitation wavelength of 400nm and 505nm emission.
(§3) The IC50 value is the concentration of inhibitor required to inhibit half of the enzyme activity after 10 minutes incubation.

[2] = molecular target: porcine pancreatic elastase (PPE) (Sus scrofa, UniProt P00772); assay: Inhibitory activity toward porcine pancreatic elastase, fluorogenic substrate, microplate reader
Chain of porcine pancreatic elastase (PPE) (P00772 27-266): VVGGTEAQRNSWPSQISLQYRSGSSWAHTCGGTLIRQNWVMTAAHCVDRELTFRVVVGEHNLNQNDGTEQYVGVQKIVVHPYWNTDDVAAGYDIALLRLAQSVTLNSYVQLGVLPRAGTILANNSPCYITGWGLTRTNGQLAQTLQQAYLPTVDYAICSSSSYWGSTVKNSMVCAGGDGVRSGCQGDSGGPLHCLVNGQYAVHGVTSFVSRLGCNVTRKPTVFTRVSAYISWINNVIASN
Description: as §1
Measurement of inhibitory activity of compounds toward porcine pancreatic elastase (PPE).
(§4) The inhibitory activity assay is performed at 37°C in 0,01M Tris-HCl, 0,05% Triton X-100 buffer, pH 8,5, within 10 min after initial pre-incubation of the enzyme with inhibitor tested at 37°C for 10 min. The enzyme concentration is 60nM. Substrate used Me-Suc-Ala-Ala-Pro-Val-AMC at 100µM. Measurement is taken at an excitation wavelength of 350nm and 460nm emission.
as §3

[3] = molecular target: T2, proteinase 3 (PR3) (Homo sapiens, UniProt P24158); assay: Inhibitory activity toward proteinase 3, fluorogenic substrate, microplate reader
T2 sequence (P24158 28-248): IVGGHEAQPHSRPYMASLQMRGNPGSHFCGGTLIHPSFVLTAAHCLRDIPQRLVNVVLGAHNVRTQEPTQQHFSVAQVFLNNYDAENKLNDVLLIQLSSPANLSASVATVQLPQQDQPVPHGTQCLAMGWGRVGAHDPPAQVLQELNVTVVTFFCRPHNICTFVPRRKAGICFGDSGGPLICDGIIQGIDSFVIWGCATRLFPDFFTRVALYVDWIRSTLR
Description: as §1
Measurement of inhibitory activity of compounds toward proteinase 3(PR3).
(§5) The inhibitory activity assay is performed at 37°C in 0,1M Tric-HCl, 0,5M NaCl buffer, pH 7,5, within 10 min after initial pre-incubation of the enzyme with inhibitor tested at 37°C for 10 min. The enzyme concentration is 17nM. Substrate used Abz-Tyr-Tyr-Abu-Anb-NH2 at 30µM. Measurement is taken at an excitation wavelength of 325nm and 400nm emission.
as §3

[4] = molecular target: T3, cathepsin G (CatG) (Homo sapiens, UniProt P08311); assay: Inhibitory activity toward cathepsin G, fluorogenic substrate, microplate reader; settings: for Cat G Kobs/[I]: 10 min pre-incubation at 37°C, pH 7,5, MCA-Phe-Val-Thr-Gnf-Ser-Trp-Anb-NH2 2.5µM, NI = brak inhibicji (no inhibition)
T3 sequence (P08311 21-244): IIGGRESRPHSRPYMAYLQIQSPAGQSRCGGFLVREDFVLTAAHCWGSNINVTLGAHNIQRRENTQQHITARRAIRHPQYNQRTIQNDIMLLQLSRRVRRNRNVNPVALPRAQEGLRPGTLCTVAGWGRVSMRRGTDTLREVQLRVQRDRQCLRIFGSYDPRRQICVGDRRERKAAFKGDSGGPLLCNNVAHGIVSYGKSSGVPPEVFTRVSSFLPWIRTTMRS
Description: as §1
Measurement of inhibitory activity of compounds toward cathepsin G (CatG).
as §5, with “100nM.” for “17nM.”, “MCA-Phe-Val-Thr-Gnf-Ser-Trp-Anb-NH2” for “Abz-Tyr-Tyr-Abu-Anb-NH2”, “2.5µM.” for “30µM.”
as §3

[5] = molecular target: chymotrypsin (ChTry) (Bos taurus, UniProt P00766); assay: Inhibitory activity toward chymotrypsin, fluorogenic substrate, microplate reader; settings: 10 min pre-incubation at 37°C, pH 7,5, Suc-Ala-Ala-Pro-Phe-AMC 5µM; NI = brak inhibicji (no inhibition)
Description: as §1
Measurement of inhibitory activity of compounds toward […] (ChyTry).
as §5, with “HEPES,” for “Tric-HCl,”, “3nM.” for “17nM.”, “Suc-Ala-Ala-Pro-Phe-AMC” for “Abz-Tyr-Tyr-Abu-Anb-NH2”, “5µM.” for “30µM.”, “350nm” for “325nm”, “460nm” for “400nm”
as §3

[6] = molecular target: subtilisin (Sub) (Bacillus licheniformis, UniProt P00780); assay: Inhibitory activity toward subtilisin, fluorogenic substrate, microplate reader
Chain of subtilisin (Sub) (P00780 106-379): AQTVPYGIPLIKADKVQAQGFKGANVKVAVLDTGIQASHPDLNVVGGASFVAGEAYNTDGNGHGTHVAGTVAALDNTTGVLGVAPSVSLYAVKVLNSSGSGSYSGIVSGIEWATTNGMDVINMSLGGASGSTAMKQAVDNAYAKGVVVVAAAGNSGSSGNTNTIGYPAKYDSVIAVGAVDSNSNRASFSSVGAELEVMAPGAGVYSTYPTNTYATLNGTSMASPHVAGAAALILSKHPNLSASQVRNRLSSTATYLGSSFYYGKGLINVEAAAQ
Description: as §1
Measurement of inhibitory activity of compounds toward subtilisin (Sub).
as §4, with “0,05M” for “0,01M”, “1M NaCl, 0,01%” for “0,05%”, “7,5,” for “8,5,”, “5nM.” for “60nM.”, “Me-Suc-Ala-Ala-Pro-Phe-AMC” for “Me-Suc-Ala-Ala-Pro-Val-AMC”, “5µM.” for “100µM.”
as §3

[7] = molecular target: T4, trypsin (Try) (Bos taurus, UniProt P00760); assay: Inhibitory activity toward trypsin, fluorogenic substrate, microplate reader; settings: 10 min pre-incubation at 37°C, pH 7,5, Cbz-Arg-AFC 100µM; NI = brak inhibicji (no inhibition)
T4 sequence (P00760 24-246): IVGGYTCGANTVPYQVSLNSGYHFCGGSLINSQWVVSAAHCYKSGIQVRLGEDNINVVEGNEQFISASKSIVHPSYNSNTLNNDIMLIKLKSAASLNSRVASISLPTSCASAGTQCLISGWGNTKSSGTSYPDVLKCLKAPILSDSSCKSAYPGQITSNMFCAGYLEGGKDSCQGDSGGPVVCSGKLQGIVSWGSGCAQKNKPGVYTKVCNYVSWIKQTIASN
Description: as §1
Measurement of inhibitory activity of compounds toward trypsin (Try).
as §2, with “0,1M” for “0,01M”, “25nM.” for “0,0025U/ml.”, “Cbz-Arg-AFC” for “Me-Suc-Ala-Ala-Pro-Val-AFC”, “100µM.” for “25µM.”
as §3

[8] = 10 min pre-incubation at 37°C, pH 7,5, Me-Suc-Ala-Ala-Pro-Val-AFC 25µM, NI = brak inhibicji (no inhibition)
[9] = read-out: PPE IC50, 10 min pre-incubation at 37°C, pH 8,5, Me-Suc-Ala-Ala-Pro-Val-AMC 100µM, NI = brak inhibicji (no inhibition)
[10] = read-out: PR3 IC50, 10 min pre-incubation at 37°C, pH 7,5, Abz-Tyr-Tyr-Abu-Anb-NH2 30µM, NI = brak inhibicji (no inhibition)
[11] = 10 min pre-incubation at 37°C, pH 7,5, Me-Suc-Ala-Ala-Pro-Phe-AMC 5µM, NI = brak inhibicji (no inhibition)
[12] = 10 min pre-incubation at 37°C, pH 8,5, Me-Suc-Ala-Ala-Pro-Val-AMC 100µM, NI = brak inhibicji (no inhibition)
[13] = 10 min pre-incubation at 37°C, pH 7,5, Abz-Tyr-Tyr-Abu-Anb-NH2 30µM, NI = brak inhibicji (no inhibition)

Row | SMILES | IC50 [1] [nM] | HNE Kobs/[I] [1, 8] | IC50 [2, 9] [nM] | IC50 [3, 10] [nM] | IC50 [4] [nM] | Cat G Kobs/[I] [4] | ChyTr Kobs/[I] [5] | IC50 [6] [nM] | Try Kobs/[I] [7] | Sub Kobs/[I] [6, 11] | IC50 [2] [nM] | PPE Kobs/[I] [2, 12] | IC50 [3] [nM] | PR3 Kobs/[I] [3, 13] | IC50 ([1]; read-out: HNE IC50, 10 min pre-incubation at 37°C, pH 7,5, Me-Suc-Ala-Ala-Pro-Val-AFC 25µM, NI = brak inhibicji (no inhibition)) [nM] | IC50 ([6]; read-out: Sub IC50, 10 min pre-incubation at 37°C, pH 7,5, Me-Suc-Ala-Ala-Pro-Phe-AMC 5µM, NI = brak inhibicji (no inhibition)) [nM]
1 | CSc1ccc(OP(=O)(Oc2ccc(SC)cc2)C(Cc2ccccc2)NC(=O)C2CCCN2C(=O)C(NC(=O)CCCCC2SCC3NC(=O)NC32)C(C)C)cc1 (stereo not shown) [Compound 6, bis(4-(methylthio)phenyl) (1-(1-(3-methyl-2-(5-(2-oxohexahydro-1H-thieno[3,4-d]imidazol-4-yl)pentanamido)butanoyl)pyrrolidine-2-carboxamido)-2-phenylethyl)phosphonate] | 1.55 ± 0.05 | 2.5*10^5 M^-1S^-1 | > 5000 | > 5000 | 218 ± 45 | 5.3*10^3 M^-1S^-1 | 1.0*10^5 M^-1S^-1 | 5.6 ± 0.8 | 3.7*10^2 M^-1S^-1 | – | – | – | – | – | – | –
2 | CSc1ccc(OP(=O)(Oc2ccc(SC)cc2)C(CC(C)C)NC(=O)C2CCCN2C(=O)CCCCC2SCC3NC(=O)NC32)cc1 (stereo not shown) [Compound 8, bis(4-(methylthio)phenyl) (3-methyl-1-(1-(5-(2-oxohexahydro-1H-thieno[3,4-d]imidazol-4-yl)pentanoyl)pyrrolidine-2-carboxamido)butyl)phosphonate] | 3800 ± 250 | 3.0*10^2 M^-1S^-1 | > 5000 | > 5000 | 1100 ± 139 | 1.0*10^3 M^-1S^-1 | 2.9*10^3 M^-1S^-1 | 11.7 ± 0.61 | 1*10^3 M^-1S^-1 | 9.9*10^4 M^-1S^-1 | – | – | – | – | – | –
3 | COC(=O)c1ccc(OP(=O)(Oc2ccc(C(=O)OC)cc2)C(CC(C)C)NC(=O)C2CCCN2C(=O)C(NC(=O)CCCCC2SCC3NC(=O)NC32)C(C)C)cc1 (stereo not shown) [Compound 9, dimethyl 4,4'-(((3-methyl-1-(1-(3-methyl-2-(5-(2-oxohexahydro-1H-thieno[3,4-d]imidazol-4-yl)pentanamido)butanoyl)pyrrolidine-2-carboxamido)butyl)phosphoryl)bis(oxy))dibenzoate] | 5.61 ± 0.02 | – | – | – | 720 ± 60 | 1.6*10^3 M^-1S^-1 | 5.2*10^4 M^-1S^-1 | 21.2 ± 1.2 | 4.4*10^4 M^-1S^-1 | 5.4*10^4 M^-1S^-1 | > 5000 | <200 M^-1S^-1 | 59.5 ± 8 | 3.9*10^4 M^-1S^-1 | – | –
4 | CSc1ccc(OP(=O)(Oc2ccc(SC)cc2)C(NC(=O)C(NC(=O)C(NC(=O)C(Cc2ccccc2)NC(=O)CCC(=O)NCCCCCNC(=O)CCCCC2SCC3NC(=O)NC32)C(C)C)C(C)O)c2ccc(NC(=N)N)cc2)cc1 (stereo not shown) [Compound 11, bis(4-(methylthio)phenyl) 10-benzyl-1-(4-guanidinophenyl)-4-(1-hydroxyethyl)-7-isopropyl-3,6,9,12,15,23-hexaoxo-27-(2-oxohexahydro-1H-thieno[3,4-d]imidazol-4-yl)-2,5,8,11,16,22-hexaazaheptacosylphosphonate] | – | – | > 5000 | – | 4740 ± 556 | 2.4*10^2 M^-1S^-1 | – | 480 ± 15.5 | 2.7*10^3 M^-1S^-1 | 2.4*10^3 M^-1S^-1 | – | – | 603 ± 49 | 3.8*10^3 M^-1S^-1 | > 5000 | –
5 | CSc1ccc(OP(=O)(Oc2ccc(SC)cc2)C(CC(C)C)NC(=O)C2CCCN2C(=O)C(NC(=O)CCCCC2SCC3NC(=O)NC32)C(C)C)cc1 (stereo not shown) [Compound 12, bis(4-(methylthio)phenyl) (3-methyl-1-(1-(3-methyl-2-(5-(2-oxohexahydro-1H-thieno[3,4-d]imidazol-4-yl)pentanamido)butanoyl)pyrrolidine-2-carboxamido)butyl)phosphonate] | 66.5 ± 6.5 | 1.7*10^4 M^-1S^-1 | – | > 5000 | 436 ± 22 | 2.6*10^3 M^-1S^-1 | 4.5*10^4 M^-1S^-1 | – | 1.9*10^3 M^-1S^-1 | – | 289 ± 10 | 4*10^3 M^-1S^-1 | – | – | – | > 5000
